Laboratory results as given in patent publication US9629813B2, “Nanoparticle formulations with enhanced mucosal penetration” (The Johns Hopkins University, priority 2012, dated 2017).
Each block holds one compound with its values, some of them ahead of it.

Tests used:
[1] = Drug distribution in the vagina (Doxorubicin surface coverage on flattened tissue); format: in vivo, mouse; conditions: for vaginal tissue area covered: non-ambulatory (supine for 1 h)
Method: (§1) Female 6-8 week-old CF-1 mice were purchased from Harlan (Indianapolis, Ind.). Mice were housed in a reverse light cycle facility (12 h light/12 h dark), to enable selection of mice in a naturally cycling estrus state. The mouse vagina during the estrus phase of the estrous cycle is most similar to the human vagina. Barrier properties to nanoparticles in estrus phase mouse mucus closely mimic the barrier properties to nanoparticles in human CVM. Thus, mice in estrus phase, as determined visually by the appearance of the vaginal introitus, were used for all distribution and retention studies. Mice used for vaginal HSV-2 protection and susceptibility studies were given a subcutaneous flank injection of 2.5 mg Depo-Provera (Pharmacia & Upjohn Company, New York, N.Y.) in 100 μL phosphate-buffered saline (PBS) 7 days prior to experiments. This treatment is commonly used to increase susceptibility to vaginal HSV-2 infection. All experimental protocols were approved by the Johns Hopkins Animal Care and Use Committee.
Doxorubicin (NetQem, Durham, N.C.) was dissolved at 1 mg/ml concentration in either PBS (isoosmolar with respect to blood) or ultrapure water (hypoosmolar). For 1 liter of 1×PBS, 800 ml of distilled water; 8 g of NaCl; 0.2 g of KCl; 1.44 g of Na2HPO4; 0.24 g of KH2PO4: adjust the pH to 7.4 with HCl, add distilled water to a total volume of 1 liter.
Doxorubicin was vaginally administered both isoosmotically and hypoosmotically to mice in two different conditions. The “non-ambulatory” group was anesthetized with an intraperitoneal injection of Avertin working solution (prepared according to Johns Hopkins ACUC guidelines) and remained supine for 1 hr prior to tissue collection. […] The images were ‘thresholded’ to draw region of interest boundaries around the fluorescent signal, and then the area covered quantified using ImageJ software. An average percentage coverage was determined for each mouse, and these values were averaged over groups of n=5 mice.

[2] = Drug retention in the vagina (Doxorubicin fluorescence of whole cervicovaginal tract); format: in vivo, mouse; conditions: after 10 min supine; normalized to isoosmolar group
Method: Female 6-8 week-old CF-1 mice were purchased from Harlan (Indianapolis, Ind.). Mice were housed in a reverse light cycle facility (12 h light/12 h dark), to enable selection of mice in a naturally cycling estrus state. The mouse vagina during the estrus phase of the estrous cycle is most similar to the human vagina. Barrier properties to nanoparticles in estrus phase mouse mucus closely mimic the barrier properties to nanoparticles in human CVM. Thus, mice in estrus phase, as determined visually by the appearance of the vaginal introitus, were used for all distribution and retention studies. […]
Doxorubicin vas dissolved at a concentration 1 mg/ml in phosphate buffeted saline (“PBS”) (isoosmolar with respect to blood) or ultrapure water (hypoosmolar). […] Fluorescence images of the tissues were obtained using the Xenogen IVIS Spectrum imaging device (Caliper Life Sciences). To account for potential differences in Doxorubicin solution fluorescence, vials of both isoosmolar and hypoosmolar Doxorubicin solutions were included in the image. The ratio of the intensity of the two solutions was used to normalize the tissue fluorescence for each group. Quantification of fluorescent counts per unit area was calculated using the Xenogen Living Image 2.5 software. […]

HSV-2 strain G = experiment: HSV-2 infection mouse model (vaginal protection); format: in vivo; conditions: 10 ID50
Method: as §1
Mice received 20 μl of 10 mg/ml acyclovir monophosphate dissolved in either PBS (isoosmolar) or ultrapure water (hypoosmolar) immediately before use. […] Mice were dosed either 1 min or 60 min prior to viral inoculum. Mice were then challenged with 10 μl of inoculum containing HSV-2 strain G (ATCC #VR-724, 2.8×10^7 TCID50 per ml). For protection studies, HSV-2 was diluted 10-fold with Bartel's medium to deliver 10 ID50, a dose that typically infects 85-90% of control mice. For osmotic-induced susceptibility tests, virus was diluted 10-fold with Bartel's medium and further diluted 10-fold in either Bartel's medium (isoosmolar) or deionized water (hypoosmolar) to the ID50, a dose that infects half of the mice. Mice were assessed for infection three days later after inoculation by culturing a PBS vaginal lavage on human foreskin fibroblasts (Diagnostic Hybrids, MRHF Lot #440318W). In this model, input (challenge) virus is no longer detectable in lavage fluid if it is collected more than 12 h after the challenge.
The Wilcoxon rank-sum test was used to compare data sets. This test is non-parametric, and more appropriate in situations where a Gaussian distribution cannot be assumed. For HSV-2 infection studies, statistical significance was determined using Fisher's exact test, two-tailed distribution.

[3] = Vaginal epithelial distribution of FITC-containing biodegradable MPP versus FITC in HEC gel after 24 h; format: in vivo, mouse; conditions: MPP in UP water, FITC in isoosmolar HEC gel
Method: Biodegradable MPP containing FITC intravaginally was administered in UP water. As a comparison, FITC in the standard isoosmolar placebo gel, hydroxyethylcellulose (HEC), was administered. After 24 h, the vaginal tissue was excised and flattened between two glass slides.

- vaginal surface area covered ([1]; ambulatory for 10 mins, isoosmolar (isotonic) solution): 25%
- vaginal tissue area covered ([1]; hypoosmolar solution (ultrapure water)): 88%
- vaginal tissue area covered ([1]; isoosmolar solution (PBS)): 15%
- relative fluorescent signal in reproductive tract, hypoosmolar versus isoosmolar solution [2]: half
Compound: COc1cccc2c1C(=O)c1c(O)c3c(c(O)c1C2=O)C[C@@](O)(C(=O)CO)C[C@@H]3O[C@H]1C[C@H](N)[C@H](O)[C@H](C)O1 [Doxorubicin]

Compound: acyclovir monophosphate [ACVp]
- mice infected (HSV-2 strain G; 1% ACVp 1 min before virus, administered hypotonically): 31%
- mice infected (HSV-2 strain G; 1% ACVp 1 min before virus, administered isotonically): 49%
- mice infected (HSV-2 strain G; 1% ACVp 1 h before virus, administered hypotonically): 73%
- mice infected (HSV-2 strain G; 1% ACVp 1 h before virus, administered isotonically): 45%

- epithelial distribution on flattened vaginal tissue [3]: sparsely distributed
Compound: FITC
